# Results taken from patent US6596701B1, “S-adenosyl methionine regulation of metabolic pathways and its use in diagnosis and therapy” (MediQuest Therapeutics, Inc., priority 1995, dated 2003).
# Read-outs that look alike come from different tables or passages of the source.
# How the values were obtained:
# [1] = test system: gastric mucosal stress ulcers; settings: polyamine-stimulated healing, Wang et al.; cited from earlier work
# SAM concentrations = settings: Bacchi et al. 1987; cited from earlier work
# puncture wounds = assay: Mouse puncture wound model, Experiment 3 (about 6 mm wounds, wound area, varied compositions); type: in vivo; settings: comparison of Groups A-D, each compound 0.18 mg/ml
# Description: This study was similar to Experiment 2, with the following changes. 1. […] 2. […] 3. Test or control compositions were applied daily. Compounds in each test composition were varied 4. N=10 mice per group 5. The each compound in the test compositions was present at a concentration of 0.18 mg/ml. [table]
# [2] = biological target: methyl transferase which acts on MBP; settings: methyl transferase with subunits of 75 and 100 kDa; cited from earlier work
# [3] = cited from earlier work
# LDHκ = LDHκ activity in HeLa cell extracts with SAM added; type: biochemical, human; settings: addition of SAM to the assay mixture
# AD patients = settings: Cohen et al. 1988; cited from earlier work
# [4] = test system: RNA polymerase II and synthesis of RNA; settings: biotin-deficient rats, within 2 hours after injection of biotin; cited from earlier work
# cultured rat hepatocytes = settings: within 6 hours, cited from earlier work
# [5] = test system: genetically diabetic mice; settings: Reddi et al. 1988; cited from earlier work
# 3T3 cells = settings: cited from earlier work
# RSV-infected cells = settings: cited from earlier work
# tumor [6] = settings: Briggs 1959; tumor size attained prior to treatment was not reduced; cited from earlier work
# injured skin = settings: compared to injured skin of saline-treated controls, Smith et al. 1989; cited from earlier work
# tumor [7] = settings: mouse model, cited from earlier work
# tRNA in tumor cells = settings: tumor-bearing mice; cited from earlier work
compound,measurement,setting,value
NCCCC(N)(C(=O)O)C(F)F (racemic) [DL-α-difluoromethylornithine],healing process of gastric mucosal stress ulcers,[1],significantly inhibited
same,increase SAM concentrations,SAM concentrations,≤ 48 fold
"NC1(C(=O)O)CC1 [ACC, 1-aminocyclopropanecarboxylic acid]",synergy in promoting wound healing,puncture wounds,act synergistically in promoting wound healing
"Nc1ncnc2c1ncn2[C@@H]1O[C@H](CSCC[C@H](N)C(=O)O)[C@@H](O)[C@H]1O [SAH, S-adenosyl-L-homocysteine]",Ki,[2],1 µM
C[S+](CC[C@H](N)C(=O)O)C[C@H]1O[C@@H](n2cnc3c(N)ncnc32)[C@H](O)[C@@H]1O.C[S+](CC[C@H](N)C(=O)O)C[C@H]1O[C@@H](n2cnc3c(N)ncnc32)[C@H](O)[C@@H]1O.O=S(=O)([O-])[O-] (stereo partly drawn) [SAM sulfate],stable for,[3]; 4° C.,6 months
"C[S+](CC[C@H](N)C(=O)O)C[C@H]1O[C@@H](n2cnc3c(N)ncnc32)[C@H](O)[C@@H]1O (stereo partly drawn) [SAM, S-adenosyl-L-methionine]",increase in activity of LDHκ,LDHκ,8-10 fold
same,membrane fluidity,AD patients,increased of membrane fluidity
same,symptoms,AD patients,no improvement nor worsening of symptoms
O=C(O)CCCC[C@@H]1SC[C@@H]2NC(=O)N[C@@H]21 [biotin],increase in RNA polymerase II,[4],2 fold
same,increase in the synthesis of RNA,[4],2 fold
same,synergy in promoting wound healing,puncture wounds,act synergistically in promoting wound healing
same,increase in glucokinase,cultured rat hepatocytes; required the presence of insulin,4 fold
same,increase in cGMP,cultured rat hepatocytes,3 fold
same,glucose and insulin tolerance,[5],improves glucose and insulin tolerance
same,GAPDH increased,3T3 cells; differentiation with biotin,8 fold
same,aldolase increased,3T3 cells; differentiation with biotin,20-30 fold
same,glycerophosphate dehydrogenase increased,3T3 cells; differentiation with biotin,"2,000 fold"
same,"actin, % of total protein after treatment",3T3 cells; from 12.7% prior to treatment with biotin,3.2 % of total protein
C[S+](CC[C@H](N)C(=O)O)C[C@H]1O[C@@H](n2cnc3c(N)ncnc32)[C@H](O)[C@@H]1O.[Cl-] (stereo partly drawn) [chloride salt of SAM],loss of activity per day,[3]; 25° C.,10 % of activity per day
NC1(C(=O)O)CCCC1 [cycloleucine],inhibition of cellular methylation,"RSV-infected cells; RSV-infected cells, concentrations used",95%
same,RSV-specific mRNAs found,RSV-infected cells; concentrations which inhibit 95% of cellular methylation,only the 35S viral mRNA is found
"C[C@@H]1NC(=O)N[C@@H]1CCCCCC(=O)O [desthiobiotin, reference compound]",antitumor effects,tumor [6],further tumor growth was prevented
NC(=O)c1cccnc1 [nicotinamide],capillary density in injured skin,injured skin,increases the capillary density in injured skin significantly
Nc1nc2[nH]cc(CN[C@H]3C=C[C@H](O)[C@@H]3O)c2c(=O)[nH]1 [queuine],effect on tumor,tumor [7]; Katze et al. 1980,shrinkage of the tumor
same,effect on tumor,"tumor [7]; Nishimura et al. 1983, cancer of different type",no effect
Nc1nc2c(c(CN[C@H]3C=C[C@H](O)[C@@H]3O)cn2[C@@H]2O[C@H](CO)[C@@H](O)[C@H]2O)c(=O)[nH]1 [queuosine],conversion of G-tRNA to QtRNA in tumor cells,tRNA in tumor cells,complete conversion
avidin: the biotin-binding protein avidin,antitumor effects,tumor [6],further tumor growth was prevented
